The text below walks through data of publication PMC12597549 (Drug Metabolism and Disposition, 2025).

Changes are numbered by the printed parent chain. Entries after “also recorded” stand apart in the source; their conditions may differ. Like-named read-outs stand apart in the source and are kept apart here.

One data set has as its target T1, UGT2B7^268His (Homo sapiens, UniProt P16662, Y268H).
T1 construct: expressed in transfected cells; microsomal membrane fraction
T1 sequence (P16662 24-529 Y268H): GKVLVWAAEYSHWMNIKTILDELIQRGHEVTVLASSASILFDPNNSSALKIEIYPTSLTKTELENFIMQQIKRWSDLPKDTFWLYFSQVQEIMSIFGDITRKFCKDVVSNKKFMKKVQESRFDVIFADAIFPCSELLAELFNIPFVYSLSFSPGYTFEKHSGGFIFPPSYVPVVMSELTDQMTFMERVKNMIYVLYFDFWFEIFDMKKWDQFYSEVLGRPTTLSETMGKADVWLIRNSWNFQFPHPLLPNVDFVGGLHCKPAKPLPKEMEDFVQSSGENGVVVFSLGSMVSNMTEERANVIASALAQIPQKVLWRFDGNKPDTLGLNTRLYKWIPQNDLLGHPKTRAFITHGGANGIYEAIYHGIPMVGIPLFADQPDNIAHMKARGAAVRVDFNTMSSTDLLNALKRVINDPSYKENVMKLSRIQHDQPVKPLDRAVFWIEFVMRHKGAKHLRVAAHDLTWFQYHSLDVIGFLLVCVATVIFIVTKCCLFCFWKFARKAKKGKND
The data set is described as follows: Inhibition of hydromorphone glucuronidation (HM3G formation) by cannabinoids in rUGT2B7^268His microsomes. Type of data set: biochemical. The settings on record: for inhibition of HM3G formation: 100 μM cannabinoid, 400 μM hydromorphone, 2% BSA, vs vehicle control; for IC50: IC50 corrected for nonspecific binding (fu,inc from refs 32,33; 11-OH-THC fu,inc as surrogate for 7-OH-CBD and 7-COOH-CBD), mean ± SD.

Data set [1] addresses T2, UGT2B7 in pooled human liver microsomes (HLM) (Homo sapiens, UniProt P16662).
T2 sequence (P16662 24-529): T1 sequence (P16662 24-529 Y268H) with H245Y
The data set is described as follows: Inhibition of UGT2B7-mediated hydromorphone glucuronidation by cannabinoids in pooled HLM (screening, IC50, Ki, inhibition type). Type of data set: biochemical. The settings on record: for inhibition of HM3G formation (in words) / inhibition of HM3G formation: 100 μM cannabinoid, pooled HLM; for IC50: IC50 corrected for nonspecific binding (fu,inc from refs 32,33; 11-OH-THC fu,inc as surrogate for 7-OH-CBD and 7-COOH-CBD), mean ± SD; for inhibition of HM3G formation: 400 μM hydromorphone, 2% BSA, vs vehicle control; for Ki: Ki corrected for nonspecific binding (fu,inc from refs 32,33; 11-OH-THC fu,inc as surrogate for 7-OH-CBD), competitive model, mixed model for 11-OH-THC, read-out: Ki,u; for Inhibition Type: type of reversible inhibition of UGT2B7-mediated hydromorphone metabolism in HLM, Lineweaver-Burk replots.

A short description of data set [2]: Estimated maximum unbound hepatic inlet plasma concentrations of cannabinoids after oral or inhaled THC or CBD. The arrangement: species or system human. To be noted: doses and Cmax from Bansal et al., 2022, read-out: Cmax,hepatic inlet,u. The source says: [I]h is the inhibitor concentration in the liver and is defined as follows:(7) [I]h=fu,p×(Cmax+Fa×Fg×Ka×Dose/Qh×Rb) where fu,p is the unbound fraction of inhibitor in plasma, and Cmax is the maximal total (free and bound) inhibitor concentration in the plasma.

Data set [3] concerns the target T3, UGT2B7^268Tyr (Homo sapiens, UniProt P16662).
T3 sequence (P16662 24-529): T1 sequence (P16662 24-529 Y268H) with H245Y
The settings on record: rUGT2B7^268Tyr microsomes; for inhibition of HM3G formation: 100 μM cannabinoid, 400 μM hydromorphone, 2% BSA, vs vehicle control; for IC50: read-out: IC50,u, IC50 corrected for nonspecific binding (fu,inc from refs 32,33; 11-OH-THC fu,inc as surrogate for 7-OH-CBD), mean ± SD.

The subject of data set [4] is UGT2B7-mediated hydromorphone metabolism. The data set is described as follows: Static mechanistic IVIVE modeling of cannabinoid-hydromorphone drug interaction (AUCR). The arrangement: species or system human. The settings on record: after inhalation and oral consumption of THC and CBD.
In data set [5] the test system is UGT2B7^268Tyr. The settings on record: from IC50,u values in rUGT2B7^268Tyr vs rUGT2B7^268His microsomes.
The conditions of data set [6]: set value for static model, cited from earlier work.

One may read the Cmax as the maximum level reached in the sampled fluid or tissue. Turning to `CCCCCc1cc(O)c2c(c1)OC(C)(C)[C@@H]1CCC(C(=O)O)=C[C@@H]21` [11-COOH-THC, 11-nor-9-carboxy (COOH)-Δ^9-THC], the figures for the “inhibition of HM3G formation” value on UGT2B7^268His and on UGT2B7^268Tyr [3] were 49% and 27%, respectively. The “inhibition of HM3G formation (in words)” value in data set [1] is on record as “only minimal or moderate inhibition; also recorded: did not show appreciable inhibition”. The peak concentration (Cmax) in data set [2] (THC 20 mg oral) is 190 nM; in data set [2] (THC 25 mg inhalation), 70 nM; in data set [2] (THC 70 mg inhalation), 180 nM; in data set [2] (THC 100 mg inhalation), 260 nM; in data set [2] (THC 130 mg oral), 1220 nM; in data set [2] (THC 160 mg oral) it was 1500 nM.
One may read the IC50 as the point on the concentration scale where inhibition reaches its midpoint. `C=C(C)[C@@H]1CCC(C(=O)O)=C[C@H]1c1c(O)cc(CCCCC)cc1O` [7-COOH-CBD]: at UGT2B7^268His, the “inhibition of HM3G formation” value is 60% and the concentration for half-maximal inhibition (IC50) worked out at 5.54 ± 3.67 µM. Moreover, the “inhibition of HM3G formation (in words)” value in data set [1] is “only minimal or moderate inhibition”. Further, the IC50 in data set [1] (HLM) is > 10 µM. On UGT2B7^268Tyr [3], the “inhibition of HM3G formation” value was found to be 41% and the “inhibitory effect on hydromorphone metabolism for the UGT2B7∗2 variant (in words)” value is “little to no inhibitory effect”.
For orientation: Ki means a dissociation constant, usually derived from enzyme kinetics or from competition with a known ligand. Take `C=C(C)[C@@H]1CCC(CO)=C[C@H]1c1c(O)cc(CCCCC)cc1O` [7-OH-CBD, 7-hydroxycannabidiol]: the “inhibition of HM3G formation” value was found to be 82% on UGT2B7^268His, 87% in data set [1] and 77% against UGT2B7^268Tyr [3]. Moreover, the values for the 50% inhibitory concentration (IC50) (on UGT2B7^268His; in data set [1] (HLM); on UGT2B7^268Tyr [3]) were 1.39 ± 0.77 µM, 0.95 ± 0.25 µM and 1.26 ± 0.93 µM, respectively. For the same molecule, the inhibition constant Ki in data set [1] (HLM) came to 0.74 ± 0.12 µM. For the same molecule, the “Inhibition Type” value in data set [1] is listed as “Competitive”. Moreover, the “increase in hydromorphone exposure (static modeling)” value (shortened to “increase in hydromorphone exposure”) in data set [4] was > 1.25 fold. Also, the peak concentration (Cmax) is 30 nM in data set [2] (CBD 70 mg oral), 340 nM in data set [2] (CBD 700 mg oral) and 980 nM in data set [2] (CBD 2000 mg oral).
11-hydroxy (OH)-Δ^9-THC [11-OH-THC]: the “inhibition of HM3G formation” value was found to be 98% against UGT2B7^268His, 96% in data set [1] and 87% at UGT2B7^268Tyr [3]. For the same molecule, the figures for the IC50 (on UGT2B7^268His; in data set [1] (HLM); at UGT2B7^268Tyr [3]) were 0.36 ± 0.03 µM, 1.08 ± 0.14 µM and 0.84 ± 0.19 µM, respectively. Also, the “α value (mixed inhibition model)” value in data set [1] (HLM, GraphPad mixed inhibition model) was > 1. Further, the Ki in data set [1] (HLM) was 1.01 ± 0.18 µM. Besides, the “Inhibition Type” value in data set [1] is given as “mixed type inhibition”. Further, the “increase in hydromorphone exposure” value in data set [4] is listed as > 1.25 fold. Further, the Cmax in data set [2] (THC 20 mg oral) was 20 nM; in data set [2] (THC 25 mg inhalation), 10 nM; in data set [2] (THC 70 mg inhalation), 30 nM; in data set [2] (THC 100 mg inhalation), 50 nM; in data set [2] (THC 130 mg oral), 100 nM; in data set [2] (THC 160 mg oral), 120 nM. For the same molecule, the “inhibitory effect against UGT2B7∗2, fold lower than with UGT2B7∗1” value in the data set with UGT2B7^268Tyr [5] is 2- to 3 fold.
Consider `CCCCCc1cc(O)c2c(c1)OC(C)(C)[C@@H]1CCC(C)=C[C@@H]21` [THC, Δ^9-tetrahydrocannabinol, reference compound], for which the “inhibition of HM3G formation” value against UGT2B7^268His is 67%; against UGT2B7^268Tyr [3], 45%. The IC50 on UGT2B7^268His worked out at 2.92 ± 0.26 µM; in data set [1] (HLM) it was 2.5 ± 0.58 µM. Further, the “inhibition of HM3G formation (in words)” value in data set [1] is given as “only minimal or moderate inhibition”. Also, the inhibitory constant (Ki) in data set [1] (HLM) worked out at 0.17 ± 0.02 µM. In addition, in data set [1], the “Inhibition Type” value is recorded as “Competitive”. In addition, the “increase in hydromorphone exposure” value in data set [4] is given as > 1.25 fold. Besides, the Cmax in data set [2] (THC 20 mg oral) was 30 nM; in data set [2] (THC 25 mg inhalation), 250 nM; in data set [2] (THC 70 mg inhalation) it was 690 nM; in data set [2] (THC 100 mg inhalation), 990 nM; in data set [2] (THC 130 mg oral) it was 200 nM; in data set [2] (THC 160 mg oral), 240 nM. In addition, at UGT2B7^268Tyr [3], the “inhibitory effect on hydromorphone metabolism for the UGT2B7∗2 variant (in words)” value is reported as “little to no inhibitory effect”. Besides, in data set [6] (ref Cox et al., 2019), the “ka (first-order absorption rate constant)” value was 0.02. Also, the “BP (blood to plasma ratio)” value in data set [6] (ref Schwilke et al., 2009) was 0.4.
